We go through eleven compounds from patent US12594276B2, “Inhibitors of human immunodeficiency virus replication” (ViiV Healthcare UK (No.5) Limited, priority 2024, dated 2026).

Data set [1] in a line: Compound cytotoxicity, XTT-based colorimetric assay. Format: cell-based. The note with it: human; uninfected MT2 cells, day 4, XTT; read-out: CC50. A digest of the protocol:
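Follows the antiviral assay procedure, but with uninfected MT2 cells. On day 4, cell viability is measured by XTT-based colorimetry, giving CC50 values.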
(In general: Formazan colour is commonly taken as a measure of viable cells.)

Data set [2] has as its system recombinant NL4-3 virus (nef section replaced with Renilla luciferase gene) in MT-2 cells. The data set can be described thus: HIV cell culture assay (antiviral activity, luciferase readout). The format is cell-based. The note with it: Renilla, NL43, MT-2 cells infected for 4-5 days with recombinant NL4-3 Renilla luciferase virus. A digest of the protocol: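 Antiviral EC50 derived from luciferase signal using the exponential median effect equation. Infection of MT-2 cells ran 4-5 days alongside serial dilutions of compound, with virus generated by proviral clone transfection of 293T cells.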

What is called CC50 is the concentration giving 50% cytotoxicity. What is called EC50 is the concentration at which the effect is half-maximal. Consider `Cc1cc(C2(F)CCC(F)(F)CC2)nc2nc([C@H](Cc3cc(F)cc(F)c3)NC(=O)Cn3nc(C4CC4)c4c3C[C@@H]3C[C@H]43)n(-c3ccc(Cl)c4c(NS(C)(=O)=O)nn(CCN5CC(C)(C)OC(C)(C)C5)c34)c(=O)c12` (atropisomer, axis not shown; (P)) [Example 504, N-[(1S)-1-[(3P)-3-{4-chloro-3-methanesulfonamido-1-[2-(2,2,6,6-tetramethylmorpholin-4-yl)ethyl]-1H-indazol-7-yl}-5-methyl-4-oxo-7-(1,4,4-trifluorocyclohexyl)-3H,4H-pyrido[2,3-d]pyrimidin-2-yl]-2-(3,5-difluorophenyl)ethyl]-2-[(2S,4S)-9-cyclopropyl-7,8-diazatricyclo[4.3.0.0^2,^4]nona-1(6),8-dien-7-yl]acetamide], for which the half-maximal cytotoxic concentration (CC50) at 4 days in data set [1] is > 20 nM. In data set [2], the EC50 turned out to be 0.049 nM.
For `COCCCn1nc(NS(C)(=O)=O)c2c(Cl)ccc(-n3c([C@H](Cc4cc(F)cc(F)c4)NC(=O)Cn4nc(C(F)F)c5c4C(F)(F)[C@@H]4C[C@H]54)nc4nc(C5CCC(F)(F)CC5)cc(NCCC5CCCCO5)c4c3=O)c21` (stereo partly drawn) [Example 563, N-[(1S)-1-[(3P)-3-[4-chloro-3-methanesulfonamido-1-(3-methoxypropyl)-1H-indazol-7-yl]-7-(4,4-difluorocyclohexyl)-5-{[2-(oxan-2-yl)ethyl]amino}-4-oxo-3H,4H-pyrido[2,3-d]pyrimidin-2-yl]-2-(3,5-difluorophenyl)ethyl]-2-[(2S,4R)-9-(difluoromethyl)-5,5-difluoro-7,8-diazatricyclo[4.3.0.0^2,^4]nona-1(6),8-dien-7-yl]acetamide], in data set [1], the CC50 at 4 days was > 20 nM. Besides, the EC50 in data set [2] is 0.019 nM.
For `CS(=O)(=O)Nc1nn(CCN2C[C@@H](F)[C@@H](F)C2)c2c(-n3c([C@H](Cc4cc(F)cc(F)c4)NC(=O)Cn4nc(C(F)F)c5c4C(F)(F)[C@@H]4C[C@H]54)nc4nc(C5CCC(F)(F)CC5)cc(C(F)F)c4c3=O)ccc(Cl)c12` (atropisomer, axis not shown; (P)) [Example 259, N-[(1S)-1-[(3P)-3-(4-chloro-1-{2-[(3R,4S)-3,4-difluoropyrrolidin-1-yl]ethyl}-3-methanesulfonamido-1H-indazol-7-yl)-7-(4,4-difluorocyclohexyl)-5-(difluoromethyl)-4-oxo-3H,4H-pyrido[2,3-d]pyrimidin-2-yl]-2-(3,5-difluorophenyl)ethyl]-2-[(2S,4R)-9-(difluoromethyl)-5,5-difluoro-7,8-diazatricyclo[4.3.0.0^2,^4]nona-1(6),8-dien-7-yl]acetamide], the 50% cytotoxic concentration (CC50) at 4 days in data set [1] was > 50 nM. Moreover, in data set [2], the EC50 came out at 0.025 nM.
As for `COCCCn1nc(NS(C)(=O)=O)c2c(Cl)ccc(-n3c([C@H](Cc4cc(F)cc(F)c4)NC(=O)Cn4nc(C(F)F)c5c4C(F)(F)[C@@H]4C[C@H]54)nc4nc(C5CCC(F)(F)CC5)cc(NCC5(F)CCOCC5)c4c3=O)c21` (atropisomer, axis not shown; (P)) [Example 484, N-[(1S)-1-[(3P)-3-[4-chloro-3-methanesulfonamido-1-(3-methoxypropyl)-1H-indazol-7-yl]-7-(4,4-difluorocyclohexyl)-5-{[(4-fluorooxan-4-yl)methyl]amino}-4-oxo-3H,4H-pyrido[2,3-d]pyrimidin-2-yl]-2-(3,5-difluorophenyl)ethyl]-2-[(2S,4R)-9-(difluoromethyl)-5,5-difluoro-7,8-diazatricyclo[4.3.0.0^2,^4]nona-1(6),8-dien-7-yl]acetamide], in data set [1], the CC50 at 4 days was > 20 nM. In data set [2], the 50% effective concentration (EC50) is 0.006 nM.
As for `COCCCn1nc(NS(C)(=O)=O)c2c(Cl)ccc(-n3c([C@H](Cc4cc(F)cc(F)c4)NC(=O)Cn4nc(C(F)F)c5c4C(F)(F)[C@@H]4C[C@H]54)nc4nc(C5(F)CCC(F)(F)CC5)cc(CN5C[C@@H](C)O[C@@H](C)C5)c4c3=O)c21` (atropisomer, axis not shown; (P)) [Example 600, N-[(1S)-1-[(3P)-3-[4-chloro-3-methanesulfonamido-1-(3-methoxypropyl)-1H-indazol-7-yl]-5-{[(2R,6S)-2,6-dimethylmorpholin-4-yl]methyl}-4-oxo-7-(1,4,4-trifluorocyclohexyl)-3H,4H-pyrido[2,3-d]pyrimidin-2-yl]-2-(3,5-difluorophenyl)ethyl]-2-[(2S,4R)-9-(difluoromethyl)-5,5-difluoro-7,8-diazatricyclo[4.3.0.0^2,^4]nona-1(6),8-dien-7-yl]acetamide], the CC50 at 4 days in data set [1] is > 20 nM. Besides, in data set [2], the EC50 came out at 0.008 nM.
In the same order, the values of `COCCCn1nc(NS(C)(=O)=O)c2c(Cl)ccc(-n3c([C@H](Cc4cc(F)cc(F)c4)NC(=O)Cn4nc(C(F)F)c5c4C(F)(F)[C@@H]4C[C@H]54)nc4nc(C5CCC(F)(F)CC5)ccc4c3=O)c21` (atropisomer, axis not shown; (P)) [Example 623, N-[(1S)-1-[(3P)-3-[4-chloro-3-methanesulfonamido-1-(3-methoxypropyl)-1H-indazol-7-yl]-7-(4,4-difluorocyclohexyl)-4-oxo-3H,4H-pyrido[2,3-d]pyrimidin-2-yl]-2-(3,5-difluorophenyl)ethyl]-2-[(2S,4R)-9-(difluoromethyl)-5,5-difluoro-7,8-diazatricyclo[4.3.0.0^2,^4]nona-1(6),8-dien-7-yl]acetamide] are > 100 nM and 0.012 nM.
In the same order, the values of `C[C@@H]1CN(CCn2nc(NS(C)(=O)=O)c3c(Cl)ccc(-n4c([C@H](Cc5cc(F)cc(F)c5)NC(=O)Cn5nc(C6CC6)c6c5C[C@@H]5C[C@H]65)nc5nc(C6CCC(F)(F)CC6)cc(C(F)F)c5c4=O)c32)C[C@H](C)O1` (atropisomer, axis not shown; (P)) [Example 240, N-[(1S)-1-[(3P)-3-(4-chloro-1-{2-[(2R,6S)-2,6-dimethylmorpholin-4-yl]ethyl}-3-methanesulfonamido-1H-indazol-7-yl)-7-(4,4-difluorocyclohexyl)-5-(difluoromethyl)-4-oxo-3H,4H-pyrido[2,3-d]pyrimidin-2-yl]-2-(3,5-difluorophenyl)ethyl]-2-[(2S,4S)-9-cyclopropyl-7,8-diazatricyclo[4.3.0.0^2,^4]nona-1(6),8-dien-7-yl]acetamide] are > 50 nM and 0.026 nM.
For the compound `C[C@@H]1CN(CCn2nc(NS(C)(=O)=O)c3c(Cl)ccc(-n4c([C@H](Cc5cc(F)cc(F)c5)NC(=O)Cn5nc(C6CC6)c6c5C[C@@H]5C[C@H]65)nc5nc(C6CCC(F)(F)CC6)cc(C6CC6)c5c4=O)c32)C[C@H](C)O1` (atropisomer, axis not shown; (P)) [Example 324, N-[(1S)-1-[(3P)-3-(4-chloro-1-{2-[(2R,6S)-2,6-dimethylmorpholin-4-yl]ethyl}-3-methanesulfonamido-1H-indazol-7-yl)-5-cyclopropyl-7-(4,4-difluorocyclohexyl)-4-oxo-3H,4H-pyrido[2,3-d]pyrimidin-2-yl]-2-(3,5-difluorophenyl)ethyl]-2-[(2S,4S)-9-cyclopropyl-7,8-diazatricyclo[4.3.0.0^2,^4]nona-1(6),8-dien-7-yl]acetamide], in data set [1], the CC50 at 4 days is > 50 nM. In data set [2], the 50% effective concentration (EC50) was determined as 0.014 nM.
On to `Cc1cc(C2(F)CCC(F)(F)CC2)nc2nc([C@H](Cc3cc(F)cc(F)c3)NC(=O)Cn3nc(C(F)F)c4c3C(F)(F)[C@@H]3C[C@H]43)n(-c3ccc(Cl)c4c(NS(C)(=O)=O)nn(CCN5C[C@@H](C)OC(C)(C)C5)c34)c(=O)c12` (atropisomer, axis not shown; (P)) [Example 577, N-[(1S)-1-[(3P)-3-(4-chloro-3-methanesulfonamido-1-{2-[(6R)-2,2,6-trimethylmorpholin-4-yl]ethyl}-1H-indazol-7-yl)-5-methyl-4-oxo-7-(1,4,4-trifluorocyclohexyl)-3H,4H-pyrido[2,3-d]pyrimidin-2-yl]-2-(3,5-difluorophenyl)ethyl]-2-[(2S,4R)-9-(difluoromethyl)-5,5-difluoro-7,8-diazatricyclo[4.3.0.0^2,^4]nona-1(6),8-dien-7-yl]acetamide], for which the CC50 at 4 days in data set [1] is > 20 nM. Further, the EC50 in data set [2] came out at 0.014 nM.
The like results for `CS(=O)(=O)Nc1nn(CCN2C[C@@H](F)[C@@H](F)C2)c2c(-n3c([C@H](Cc4cc(F)cc(F)c4)NC(=O)Cn4nc(C(F)F)c5c4C(F)(F)[C@@H]4C[C@H]54)nc4nc(C5CCC(F)(F)CC5)ccc4c3=O)ccc(Cl)c12` (atropisomer, axis not shown; (P)) [Example 26, N-[(1S)-1-[(3P)-3-(4-chloro-1-{2-[(3R,4S)-3,4-difluoropyrrolidin-1-yl]ethyl}-3-methanesulfonamido-1H-indazol-7-yl)-7-(4,4-difluorocyclohexyl)-4-oxo-3H,4H-pyrido[2,3-d]pyrimidin-2-yl]-2-(3,5-difluorophenyl)ethyl]-2-[(2S,4R)-9-(difluoromethyl)-5,5-difluoro-7,8-diazatricyclo[4.3.0.0^2,^4]nona-1(6),8-dien-7-yl]acetamide] were, in that order, > 50 nM and 0.011 nM.
For `COCCCn1nc(NS(C)(=O)=O)c2c(Cl)ccc(-n3c([C@H](Cc4cc(F)cc(F)c4)NC(=O)Cn4nc(C(F)F)c5c4C(F)(F)[C@@H]4C[C@H]54)nc4nc(C5CCC(F)(F)CC5)cc(NC[C@@H]5CCOC5)c4c3=O)c21` (atropisomer, axis not shown; (P)) [Example 568, N-[(1S)-1-[(3P)-3-[4-chloro-3-methanesulfonamido-1-(3-methoxypropyl)-1H-indazol-7-yl]-7-(4,4-difluorocyclohexyl)-4-oxo-5-({[(3S)-oxolan-3-yl]methyl}amino)-3H,4H-pyrido[2,3-d]pyrimidin-2-yl]-2-(3,5-difluorophenyl)ethyl]-2-[(2S,4R)-9-(difluoromethyl)-5,5-difluoro-7,8-diazatricyclo[4.3.0.0^2,^4]nona-1(6),8-dien-7-yl]acetamide], in data set [1], the 50% cytotoxic concentration (CC50) at 4 days was > 20 nM. The EC50 in data set [2] came to 0.01 nM.
